Values after ≈ are worked out from the molar mass of the structure shown.
Assays:
Test in all cases: MIC, broth microdilution (NCCLS)
[1] = tested on: Streptococcus pneumoniae Stpn_297-749; type: cell-based; conditions: Table 7, Strain ID G (Table 6): S. pneumoniae Stpn_297-749
In short: (§1)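 Broth microdilution per NCCLS in cation-adjusted Mueller-Hinton broth, with 2-5% lysed horse blood added for S. pneumoniae. Inoculum 3×10^5–7×10^5 CFU/ml, 2-fold drug dilutions, 18-24 h at 35° C; S. pneumoniae under 5-10% CO2, others ambient air. MIC = lowest concentration preventing visible growth.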

[2] = tested on: S. pneumoniae Stpn_Erm 6849; type: cell-based, Streptococcus pneumoniae; conditions: Table 7, Strain ID I (Table 6): S. pneumoniae Stpn_Erm 6849; unit assumed
Protocol: (§2) Strains. The bacterial isolates listed in Table 4 were cultivated from −70° C. frozen stocks by two consecutive overnight passages (P1, P2) at 35° C. on 5% blood agar (Remel, Lenexa, Kans.). Chocolate agar (Remel) is used for Haemophilus influenzae. H. influenzae and Streptococcus pneumoniae are incubated in 5-10% CO2
(§3) Drug Stock Preparation. To determine the amount of solvent to be used to give the desired final concentration, the formula “weight obtained in mg/final concentration in mg/ml” will be used. It will give the amount of solvent in ml needed to be added to give the desired concentration. For example, if 2.5 mg/ml is the desired concentration and the weight of compound is 13.7 mg, then the amount of solvent to be added is […]. Methanol is used as the solvent to dissolve the test compounds. Further dilution of stock is done in sterile, deionized water. Drug stocks are kept frozen at −70° C., protected from light.
(§4) Susceptibility Testing. MICs are determined by the broth microdilution method in accordance with the NCCLS guidelines. In brief, organism suspensions are adjusted to a 0.5 McFarland standard to yield a final inoculum between 3×10^5 and 7×10^5 CFU/ml. Drug dilutions and inocula are made in sterile, cation adjusted Mueller-Hinton Broth (CAMHB) (Remel) for all but S. pneumoniae [CAMHB with 2-5% lysed horse blood (Remel)] and H. influenzae [Haemophilus Test Medium (Remel)]. An inoculum volume of 100 μl is added to wells containing 100 μl of broth with 2-fold serial dilutions of drug. All inoculated microdilution trays are incubated in ambient air at 35° C. for 18-24 hours, except for S. pneumoniae, and H. influenzae (both at 5-10% CO2).
(§5) Following appropriate incubation, the MIC is determined and the MIC is defined as the lowest concentration of the drug that prevented visible growth.

[3] = tested on: Streptococcus pyogenes Stpy_8668; type: cell-based; conditions: Table 7, Strain ID E (Table 6): S. pyogenes Stpy_8668
In short: as §1

[4] = tested on: Streptococcus pneumoniae Stpn_49619; type: cell-based; conditions: Table 7, Strain ID F (Table 6): S. pneumoniae Stpn_49619
In short: as §1

[5] = tested on: Enterococcus faecalis Enfa_29212; type: cell-based; conditions: Table 7, Strain ID D (Table 6): E. faecalis Enfa_29212; in µg/mL (unit assumed)
Protocol: as §2, §3, §4, §5
as §2, with “8” for “4”
(§6) Following appropriate incubation, the MIC is determined and the MIC is defined as the lowest concentration of the drug that prevented visible growth. […] Antibacterial activity of representative compounds of the invention were compared against telitromycin.

[6] = tested on: Streptococcus pneumoniae Stpn_Erm S 4297; type: cell-based; conditions: Table 7, Strain ID J (Table 6): S. pneumoniae Stpn_Erm S 4297
Protocol: as §2, §3, §4, §5
as §2, with “8” for “4”
as §6

[7] = tested on: Streptococcus pneumoniae Stpn_Mef S 3427; type: cell-based; conditions: Table 7, Strain ID L (Table 6): S. pneumoniae Stpn_Mef S 3427
Protocol: as §2, §3, §4, §5
as §2, with “8” for “4”
as §6

[8] = tested on: Haemophilus influenzae Hain_49247; type: cell-based; conditions: Table 7, Strain ID M (Table 6): H. influenzae Hain_49247; unit assumed
Protocol: as §2, §3, §4, §5
as §2, with “8” for “4”
as §6

[9] = tested on: Staphylococcus epidermidis Step_14990; type: cell-based; conditions: Table 7, Strain ID B (Table 6): S. epidermidis Step_14990; in µg/mL (unit assumed)
Protocol: as §2, §3, §4, §5
as §2, with “8” for “4”
as §6

[10] = tested on: Staphylococcus aureus Stau_29213; type: cell-based; conditions: Table 7, Strain ID A (Table 6): S. aureus Stau_29213; in µg/mL (unit assumed)
Protocol: as §2, §3, §4, §5
as §2, with “8” for “4”
as §6

[11] = tested on: Staphylococcus epidermidis Step_f50654; type: cell-based; conditions: Table 7, Strain ID C (Table 6): S. epidermidis Step_f50654; in µg/mL (unit assumed)
Protocol: as §2, §3, §4, §5
as §2, with “8” for “4”
as §6

[12] = tested on: Streptococcus pneumoniae Stpn_280-962; type: cell-based; conditions: Table 7, Strain ID H (Table 6): S. pneumoniae Stpn_280-962
In short: as §1

[13] = tested on: Streptococcus pneumoniae Stpn_Mef 5654; type: cell-based; conditions: Table 7, Strain ID K (Table 6): S. pneumoniae Stpn_Mef 5654; in µg/mL (unit assumed)
Protocol: as §2, §3, §4, §5
as §2, with “8” for “4”
as §6

Row | Structure (SMILES) | MIC [1] | MIC [2] | MIC [3] | MIC [4] | MIC [5] | MIC ([6]; unit assumed) | MIC ([7]; in µg/mL (unit assumed)) | MIC [8] | MIC [9] | MIC [10] | MIC [11] | MIC [12] | MIC [13] | MIC ([1]; unit assumed) | MIC ([3]; unit assumed) | MIC ([4]; unit assumed) | MIC ([12]; unit assumed) | MIC [7] | MIC [6]
1 | CCC1OC(=O)C(C)C(=O)C(C)C(OC2OC(C)CC(N(C)C)C2O)C(C)(OC)CC(C)C(=O)C(C)C2C1OC(=O)N2CCCCc1ccnc2c(C(F)(F)F)cccc12 (stereo not drawn) [Compound 20q] | =0.05 | 1.56 µg/mL (≈ 1.84 µM) | =0.05 | =0.05 | 0.1 | 0.2 µg/mL (≈ 0.235 µM) | 0.1 | 12.5 µg/mL (≈ 14.7 µM) | 0.2 | 0.4 | 0.4 | =0.05 | 0.4 |  |  |  |  |  | 
2 | CCC1OC(=O)C(C)C(=O)C(C)C(OC2OC(C)CC(N(C)C)C2O)C(C)(OC)CC(C)C(=O)C(C)C2C1OC(=O)N2CCCOc1ccc(-c2cccnc2)cc1 (stereo not drawn) [Compound 20r] |  | 25 µg/mL (≈ 30.9 µM) |  |  | 1.56 | 25 µg/mL (≈ 30.9 µM) | 0.1 | 50 µg/mL (≈ 61.7 µM) | 3.13 | 3.13 | 1.56 |  | 1.56 | 0.1 µg/mL (≈ 0.123 µM) | 0.4 µg/mL (≈ 0.494 µM) | 0.1 µg/mL (≈ 0.123 µM) | 0.1 µg/mL (≈ 0.123 µM) |  | 
3 | CCC1OC(=O)C(C)C(=O)C(C)C(OC2OC(C)CC(N(C)C)C2O)C(C)(OC)CC(C)C(=O)C(C)C2C1OC(=O)N2CCCOc1cccc(-c2cccnc2)c1 (stereo not drawn) [Compound 20s] | =0.05 | 12.5 µg/mL (≈ 15.4 µM) | =0.05 | =0.05 | 0.2 | 0.2 µg/mL (≈ 0.247 µM) |  | 3.13 µg/mL (≈ 3.86 µM) | 0.78 | 0.78 | 0.4 | =0.05 | 0.78 |  |  |  |  | =0.05 | 
4 | CCC1OC(=O)C(C)C(=O)C(C)C(OC2OC(C)CC(N(C)C)C2O)C(C)(OC)CC(C)C(=O)C(C)C2C1OC(=O)N2CCCCc1ncc(-c2ccccc2)s1 (stereo not drawn) [Compound 20t] | =0.05 | 25 µg/mL (≈ 30.7 µM) |  | =0.05 | 0.4 | 1.56 µg/mL (≈ 1.92 µM) | 0.1 | 12.5 µg/mL (≈ 15.4 µM) | 0.78 | 0.78 | 0.4 | =0.05 | 1.56 |  | 0.2 µg/mL (≈ 0.246 µM) |  |  |  | 
5 | CCC1OC(=O)C(C)C(=O)C(C)C(OC2OC(C)CC(N(C)C)C2O)C(C)(OC)CC(C)C(=O)C(C)C2C1OC(=O)N2CCCCc1ncc(-c2ccc(F)cc2F)s1 (stereo not drawn) [Compound 20u] |  | 25 µg/mL (≈ 29.4 µM) |  |  | 0.4 | 12.5 µg/mL (≈ 14.7 µM) | 0.2 | 25 µg/mL (≈ 29.4 µM) | 0.78 | 0.78 | 0.4 |  | 1.56 | 0.1 µg/mL (≈ 0.118 µM) | 0.4 µg/mL (≈ 0.471 µM) | 0.1 µg/mL (≈ 0.118 µM) | 0.1 µg/mL (≈ 0.118 µM) |  | 
6 | CCC1OC(=O)C(C)C(=O)C(C)C(OC2OC(C)CC(N(C)C)C2O)C(C)(OC)CC(C)C(=O)C(C)C2C1OC(=O)N2CCCCc1ncc(-c2cccc(N)c2)s1 (stereo not drawn) [Compound 20v] | =0.05 | 50 µg/mL (≈ 60.3 µM) | =0.05 | =0.05 | 0.2 | 0.4 µg/mL (≈ 0.482 µM) |  | 6.25 µg/mL (≈ 7.54 µM) | 0.4 | 0.4 | 0.2 | =0.05 | 0.78 |  |  |  |  | =0.05 | 
7 | CCC1OC(=O)C(C)C(=O)C(C)C(OC2OC(C)CC(N(C)C)C2O)C(C)(OC)CC(C)C(=O)C(C)C2C1OC(=O)N2OCCOc1ccccc1 (stereo not drawn) [Compound 20w] | =0.05 | 12.5 µg/mL (≈ 17 µM) | =0.05 | =0.05 | 0.2 | 3.13 µg/mL (≈ 4.26 µM) | 0.1 | 50 µg/mL (≈ 68 µM) | 1.56 | 3.13 | 3.13 | =0.05 | 0.4 |  |  |  |  |  | 
8 | CC[C@H]1OC(=O)[C@H](C)C(=O)[C@H](C)[C@@H](OC2O[C@H](C)C[C@H](N(C)C)[C@H]2O)[C@@](C)(OC)C[C@@H](C)C(=O)[C@H](C)[C@H]2N(CCCC(C)(C)n3cnc(-c4cccnc4)c3)C(=O)O[C@]12CC (stereo partly drawn) [Example 31, (3aS,4R,7R,9R,10R,11S,13R,15R,15aR)-3a,4-diethyl-11-methoxy-7,9,11,13,15-pentamethyl-1-[4-methyl-4-(4-pyridin-3-yl-1H-imidazol-1-yl)pentyl]-2,6,8,14-tetraoxotetradecahydro-2H-oxacyclotetradecino[4,3-d][1,3]oxazol-10-yl-3,4,6-trideoxy-3-(dimethylamino)-D-xylo-hexopyranoside] | =0.05 | 0.4 µg/mL (≈ 0.468 µM) | =0.05 | =0.05 | 0.2 | 0.2 µg/mL (≈ 0.234 µM) | 0.2 | 6.25 µg/mL (≈ 7.32 µM) | 0.4 | 0.2 | 0.4 | =0.05 | 0.78 |  |  |  |  |  | 
9 | CC[C@H]1OC(=O)[C@@](C)(F)C(=O)[C@H](C)[C@@H](OC2O[C@H](C)C[C@H](N(C)C)[C@H]2O)[C@@](C)(OC)C[C@@H](C)C(=O)[C@H](C)[C@H]2N(CCCC(C)(C)n3cnc4ncccc43)C(=O)O[C@]12CC (stereo partly drawn) [Example 39, (3aS,4R,7S,9R,10R,11S,13R,15R,15aR)-3a,4-diethyl-7-fluoro-1-[4-(1H-imidazo[4,5-b]pyridin-1-yl)-4-methylpentyl]-11-methoxy-7,9,11,13,15-pentamethyl-2,6,8,14-tetraoxotetradecahydro-2H-oxacyclotetradecino[4,3-d][1,3]oxazol-10-yl-3,4,6-trideoxy-3-(dimethylamino)-D-xylo-hexopyranoside] | =0.05 | 0.1 µg/mL (≈ 0.118 µM) | =0.05 | =0.05 | 0.1 |  | 0.2 | 3.13 µg/mL (≈ 3.7 µM) | 0.1 | 0.2 | 0.4 | =0.05 | 0.78 |  |  |  |  |  | =0.05

From patent publication US7332476B2, “Pyridyl substituted ketolide antibiotics” (Novartis AG, priority 2003, dated 2008)
